US11964949B2, “Substituted phenyloxazolidinones for antimicrobial therapy” (priority 2015, dated 2024)
≈ marks a conversion by molar mass, not a printed value. Read-outs that look alike come from different tables or passages of the source.

Key:
[1] = test system: Mycobacterium tuberculosis H37Rv; assay: In vitro assay for antimicrobial susceptibility (microplate Alamar blue, MIC); format: cell-based; conditions: Mycobacterium tuberculosis, read-out: MIC (μg/mL) against H37Rv
[2] = test system: mitochondrial protein synthesis (MPS) in H9C2 cells; assay: In vitro assay for MPS inhibition (COX-1 / SDH-A ELISA in H9C2 cells); format: cell-based, rat; conditions: Rattus norvegicus, read-out: IC50 (μM) MPS inhibition
[3] = M. tuberculosis H37Rv, 7H9 broth, Alamar blue
[4] = 120 h, H9C2 cells, 5 days incubation

Row | Structure (SMILES) | MIC [1, 3] | IC50 [2, 4] | MIC ([1]; H37RV) | IC50 ([2]; H9c2, 120 h)
1 | O=C1O[C@@H](Cn2nccn2)CN1c1ccc(N2CCCSCC2)c(F)c1 [OTB-106, (R)-5-[(2H-1,2,3-Triazol-2-yl)methyl]-3-[3-fluoro-4-(1,4-thiazepan-4-yl)phenyl]oxazolidin-2-one] | 2 µg/mL (≈ 5.3 µM) | > 100 µM | – | –
2 | CS(=O)(=O)NC[C@H]1CN(c2cc(F)c(N3CC4(CSC4)C3)c(F)c2)C(=O)O1 [OTB-516-2A] | 0.05 µg/mL (≈ 0.119 µM) | > 100 µM | – | –
3 | O=C1O[C@@H](Cn2ccnn2)CN1c1ccc(N2CC3(CSC3)C2)c(F)c1 [OTB-241, (R)-5-((1H-1,2,3-Triazol-1-yl)methyl)-3-(3-fluoro-4-(2-thia-6-azaspiro[3.3]heptan-6-yl)phenyl)oxazolidin-2-one] | 0.116 µg/mL (≈ 0.309 µM) | 19.8 µM | – | –
4 | CC(=O)NC[C@H]1CN(c2ccc(N3CC4CCC(C3)O4)c(F)c2)C(=O)O1 [OBD-110] | 0.45 µg/mL (≈ 1.24 µM) | 7 µM | – | –
5 | CC(=O)NC[C@H]1CN(c2cc(F)c(N3[C@@H]4CC[C@H]3C[S+]([O-])C4)c(F)c2)C(=O)O1 (stereo partly drawn) [OTB-514, N-(((5S)-3-(3,5-Difluoro-4-((1R,5S)-3-oxido-3-thia-8-azabicyclo[3.2.1]octan-8-yl)phenyl)-2-oxo-oxazolidin-5-yl)methyl) acetamide] | – | – | 0.5 µg/mL (≈ 1.21 µM) | 25 µM
6 | CNC(=O)OC[C@H]1CN(c2ccc(N3CC4(C3)C[S+]([O-])C4)c(F)c2)C(=O)O1 [OTB-260-4B] | – | > 100 µM | 20 µg/mL (≈ 50.3 µM) | –
7 | COC(=O)NC[C@H]1CN(c2cc(F)c(N3CC4(CSC4)C3)c(F)c2)C(=O)O1 [OTB-242, Methyl (S)-((3-(3,5-difluoro-4-(2-thia-6-azaspiro[3.3]heptan-6-yl)phenyl)-2-oxo-oxazolidin-5-yl)methyl)carbamate] | 0.02 to 0.06 µg/mL (≈ 0.0501 to 0.15 µM) | 23 to 71 µM | – | –
8 | COC(=O)NC[C@H]1CN(c2cc(F)c(N3CCCSCC3)c(F)c2)C(=O)O1 [OTB-410, Methyl (S)-((3-(3,5-difluoro-4-(1,4-thiazepan-4-yl)phenyl)-2-oxo-oxazolidin-5-yl)methyl)carbamate] | 0.125 µg/mL (≈ 0.311 µM) | > 100 µM | – | –
9 | O=C1O[C@@H](Cn2ccnn2)CN1c1cc(F)c(N2C3CCC2COC3)c(F)c1 [OBD-055, (5R)-5-((1H-1,2,3-triazol-1-yl)methyl)-3-(4-(3-oxa-8-aza-bicyclo[3.2.1]octan-8-yl)-3,5-difluorophenyl)oxazolidin-2-one] | – | – | 1.3 µg/mL (≈ 3.32 µM) | 15 µM
10 | O=C(NC[C@H]1CN(c2cc(F)c(N3CC4(COC4)C3)c(F)c2)C(=O)O1)C1CC1 [OTB-233, (S)—N-((3-(3,5-Difluoro-4-(2-oxa-6-azaspiro[3.3]heptan-6-yl)phenyl)-2-oxo-oxazolidin-5-yl)methyl)cyclopropanecarboxamide] | 0.36 to 1 µg/mL (≈ 0.915 to 2.54 µM) | 8.4 to 50 µM | – | –
11 | CC(C)(C)C(=O)NC[C@H]1CN(c2ccc(N3CCCSCC3)c(F)c2)C(=O)O1 [OTB-115, (S)—N-[[3-(3-Fluoro-4-(1,4-thiazepan-4-yl)phenyl)-2-oxo-oxazolidin-5-yl]methyl]pivalamide] | 3.73 µg/mL (≈ 9.12 µM) | > 100 µM | – | –
12 | COC(=O)NC[C@H]1CN(c2ccc(N3CC4(C3)C[S+]([O-])C4)c(F)c2)C(=O)O1 [OTB-256] | 4 µg/mL (≈ 10.1 µM) | 46 µM | – | –
13 | O=C1O[C@@H](Cn2ccnn2)CN1c1ccc(N2CC3(C2)C[S+]([O-])C3)c(F)c1 [OTB-247] | 1.2 to 1.4 µg/mL (≈ 3.07 to 3.58 µM) | 10 µM | – | –
14 | CC(C)(C)C(=O)NC[C@H]1CN(c2ccc(N3CCCSCCC3)c(F)c2)C(=O)O1 [OTB-121, (S)—N-[[3-(3-Fluoro-4-(1,5-thiazocan-5-yl)phenyl)-2-oxo-oxazolidin-5-yl]methyl]pivalamide] | 2.79 µg/mL (≈ 6.58 µM) | 17.6 µM | – | –
15 | CC(=O)NC[C@H]1CN(c2ccc(N3[C@@H]4CC[C@H]3CSC4)c(F)c2)C(=O)O1 [OTB-502, N—(((S)-3-(4-((1R,5S)-3-Thia-8-azabicyclo[3.2.1]octan-8-yl)-3-fluorophenyl)-2-oxooxazolidin-5-yl)methyl)acetamide] | – | – | 0.246 µg/mL (≈ 0.648 µM) | 13.6 µM
16 | CS(=O)(=O)NC[C@H]1CN(c2ccc(N3CC4(CSC4)C3)c(F)c2)C(=O)O1 [OTB-260-2A] | 0.82 µg/mL (≈ 2.04 µM) | > 100 µM | – | –
17 | COC(=O)NC[C@H]1CN(c2cc(F)c(N3C4CCC3COC4)c(F)c2)C(=O)O1 [OBD-052] | – | – | 0.95 µg/mL (≈ 2.39 µM) | 13 µM
18 | CC(=O)NC[C@H]1CN(c2ccc(N3CCCSCCC3)c(F)c2)C(=O)O1 [OTB-114, (S)—N-((3-(3-fluoro-4-(1,5-thiazocan-5-yl)phenyl)-2-oxooxazolidin-5-yl)methyl)acetamide] | 0.05 to 0.11 µg/mL (≈ 0.131 to 0.288 µM) | 28 to 29 µM | – | –
19 | CC(=O)NC[C@H]1CN(c2ccc(N3CC4(C3)C[S+]([O-])C4)c(F)c2)C(=O)O1 [OTB-523] | 0.5 µg/mL (≈ 1.31 µM) | 4 µM | – | –
20 | COC(=O)NC[C@H]1CN(c2ccc(N3C4CCC3C[S+]([O-])C4)c(F)c2)C(=O)O1 (stereo partly shown) [OTB-518] | – | – | 3.5 µg/mL (≈ 8.51 µM) | 73 µM
21 | O=C(NC[C@H]1CN(c2cc(F)c(N3CCCSCC3)c(F)c2)C(=O)O1)C1CCC1 [OTB-409] | 0.477 µg/mL (≈ 1.12 µM) | 8.51 µM | – | –
22 | CC(=O)NC[C@H]1CN(c2cc(F)c(N3[C@@H]4CC[C@H]3CSC4)c(F)c2)C(=O)O1 [OTB-510, N—(((S)-3-(4-((1R,5S)-3-Thia-8-aza-bicyclo[3.2.1]octan-8-yl)-3,5-difluorophenyl)-2-oxo-oxazolidin-5-yl)methyl)acetamide] | – | – | 0.03 to 0.22 µg/mL (≈ 0.0755 to 0.554 µM) | 3 to 7 µM
23 | O=C1O[C@@H](Cn2cncn2)CN1c1ccc(N2CCCSCCC2)c(F)c1 [OBD-008, (R)-5-((1H-1,2,4-triazol-1-yl)methyl)-3-(3-fluoro-4-(1,5-thiazocan-5-yl)phenyl)oxazolidin-2-one] | 3.51 µg/mL (≈ 8.97 µM) | 29.9 µM | – | –
24 | O=C1O[C@@H](Cn2ccnn2)CN1c1ccc(N2CCC[S+]([O-])CCC2)c(F)c1 [OBD-002, (R)-5-((1H-1,2,3-Triazol-1-yl)methyl)-3-(3-fluoro-4-(1-oxido-1,5-thiazocan-5-yl)phenyl)oxazolidin-2-one] | 1.6 µg/mL (≈ 3.93 µM) | 29 µM | – | –
25 | CNC(=O)OC[C@H]1CN(c2ccc(N3CC4(CSC4)C3)c(F)c2)C(=O)O1 [OTB-260-4A] | – | > 100 µM | 0.39 µg/mL (≈ 1.02 µM) | –
26 | O=C(NC[C@H]1CN(c2ccc(N3CC4(COC4)C3)c(F)c2)C(=O)O1)C1CCC1 [OTB-239, (S)—N-((3-(3-Fluoro-4-(2-oxa-6-azaspiro[3.3]heptan-6-yl)phenyl)-2-oxo-oxazolidin-5-yl)methyl)cyclobutanecarboxamide] | 2.1 to 3.8 µg/mL (≈ 5.39 to 9.76 µM) | 19 to 67 µM | – | –
27 | NC[C@H]1CN(c2ccc(N3CC4CCC(C3)O4)c(F)c2)C(=O)O1 [OBD-113, 3-(4-(8-oxa-3-aza-bicyclo[3.2.1]octan-3-yl)-3-fluorophenyl)-5-(aminomethyl)oxazolidin-2-one] | 0.39 µg/mL (≈ 1.21 µM) | > 100 µM | – | –
28 | O=C(NC[C@H]1CN(c2ccc(N3CCCSCC3)c(F)c2)C(=O)O1)C1CC1 [OTB-413, (S)—N-((3-(3-Fluoro-4-(1,4-thiazepan-4-yl)phenyl)-2-oxo-oxazolidin-5-yl)methyl)cyclopropanecarboxamide] | 0.108 µg/mL (≈ 0.274 µM) | 9.13 µM | – | –
29 | CCCC(=O)NC[C@H]1CN(c2ccc(N3CCC[S+]([O-])CC3)c(F)c2)C(=O)O1 (stereo partly drawn) [OBD-006, N-(((5S)-3-(3-Fluoro-4-(1-oxido-1,4-thiazepan-4-yl)phenyl)-2-oxooxazolidin-5-yl)methyl)butyramide] | 0.49 µg/mL (≈ 1.19 µM) | 7.49 µM | – | –
